In patent US6291467A, “Heteroaromatic derivatives” (priority 2000, dated 2001):
Where a name gives a salt, the structure may show the parent alone.

How the values were obtained:
human D4.2 receptor = biological target: T1, human D4.2 receptor (Homo sapiens, UniProt P21917, DEL265-296); experiment: Dopamine D4 Receptor Binding Assay (displacement of [^3 H]spiperone); details: human D4.2 in CHO cell membranes, pH 7.4, 27° C., 2 hours
T1 sequence (P21917 with tags, fused parts or gaps DEL265-296): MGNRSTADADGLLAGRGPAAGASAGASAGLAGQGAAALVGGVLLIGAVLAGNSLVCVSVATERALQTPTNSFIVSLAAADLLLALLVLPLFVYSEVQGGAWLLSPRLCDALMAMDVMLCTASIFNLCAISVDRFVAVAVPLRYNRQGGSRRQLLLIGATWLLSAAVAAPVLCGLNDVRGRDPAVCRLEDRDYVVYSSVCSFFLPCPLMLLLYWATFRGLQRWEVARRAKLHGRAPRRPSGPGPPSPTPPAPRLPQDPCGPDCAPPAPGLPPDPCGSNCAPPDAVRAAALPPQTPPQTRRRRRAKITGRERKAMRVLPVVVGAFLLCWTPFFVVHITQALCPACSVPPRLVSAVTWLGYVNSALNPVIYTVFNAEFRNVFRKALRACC
Procedure: 1. Dopamine D4 Receptor Binding Assay
Chinese hamster ovarium (CHO) cell membranes wherein human D4.2 receptor was expressed were used as a receptor preparation.
[^3 H]spiperone was used as [^3 H]-labeled ligand.
A binding reaction using the [^3 H]-labeled ligand was carried out according to the following method as described in Eur. J. Pharmacol., 233, 173(1993).
Dopamine D4.2 Receptor Binding Assay: The CHO cell membranes wherein human D4.2 receptor was expressed, [^3 H]spiperone ([…]) and each test drug were reacted in 50 mM Tris-hydrochloric acid buffer (pH 7.4) containing 5 mM EDTA, 1.5 mM CaCl2, 5 mM KCl and 120 mM NaCl at 27° C. for 2 hours.
After completion of the reaction, the reaction solution was filtered by suction through a glass filter (GF/B), and the radioactivity on the filter was measured by a liquid scintillation spectrometer.
The binding under the reaction in the presence of 10 μM haloperidol was defined as non-specific binding of [^3 H]spiperone, and the difference between the total binding and the non-specific binding was defined as specific binding.

Dopamine D2 Receptor = Dopamine D2 Receptor (Rattus norvegicus, UniProt P61169); experiment: Dopamine D2 Receptor Binding Assay (displacement of [^3 H]raclopride); details: rat striatum membrane, [^3 H]raclopride (1 nM), 25° C., an hour
Sequence of Dopamine D2 Receptor (P61169 whole entry): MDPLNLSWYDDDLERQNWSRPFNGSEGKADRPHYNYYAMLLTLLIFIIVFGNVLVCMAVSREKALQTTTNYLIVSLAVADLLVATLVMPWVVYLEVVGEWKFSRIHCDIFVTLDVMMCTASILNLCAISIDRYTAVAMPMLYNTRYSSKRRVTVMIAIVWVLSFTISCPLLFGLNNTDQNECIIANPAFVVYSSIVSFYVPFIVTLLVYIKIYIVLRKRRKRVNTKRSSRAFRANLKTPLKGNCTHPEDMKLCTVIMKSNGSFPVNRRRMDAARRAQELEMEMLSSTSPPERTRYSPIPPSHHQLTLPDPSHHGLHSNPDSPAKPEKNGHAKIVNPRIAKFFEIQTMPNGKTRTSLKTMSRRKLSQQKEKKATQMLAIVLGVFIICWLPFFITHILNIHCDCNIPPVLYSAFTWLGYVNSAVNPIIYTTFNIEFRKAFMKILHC
Procedure: 2. Dopamine D2 Receptor Binding Assay
Rat striatum membrane was used as a receptor preparation.
[^3 H]raclopride was used as [^3 H]-labeled ligand.
A binding reaction using the [^3 H]-labeled ligand was carried out according to the following method as described in Mol. J. Pharmacol., 43, 749(1993).
Preparation of Receptor Preparation: Rat striatum was homogenized in 50 mM Tris-hydrochloric acid buffer (pH 7.4), centrifuged at 48,000×g, and the precipitate was washed once with a Tris-hydrochloric acid buffer. The precipitate was suspended in 50 mM Tris-hydrochloric acid buffer (pH 7.4) containing 120 mM NaCl, 1.5 mM KCl, 2 mM CaCl2 and 1 mM MgCl2 to give a membrane preparation.
Dopamine D2 Receptor Binding Assay: The membrane preparation (0.5 mg of protein/ml), [^3 H]raclopride (1 nM) and each test drug were reacted at 25° C. for an hour.
After completion of the reaction, the reaction solution was filtered by suction through a glass filter (GF/B), and the radioactivity on the filter was determined by a liquid scintillation spectrometer.
The binding under the reaction in the presence of 10 μM haloperidol was defined as non-specific binding of [^3 H]raclopride, and the difference between total binding and non-specific binding was defined as specific binding.

[1] = test system: drug-resistant schizophrenia and negativism; details: clinical investigation, Arch. Gen. Psych., 45, 789-796 (1988); cited from earlier work
[2] = Summary and Clinical Data, Sandoz, Canada Inc. (1990); cited from earlier work
dopamine D4 receptors = details: Nature, 350, 610-614 (1991); cited from earlier work

Compound	IC50 (human D4.2 receptor) [nM]	IC50 (Dopamine D2 Receptor) [nM]	also measured
Fc1ccc(-c2[nH]ncc2CCN2CCC(=Cc3ccccc3F)CC2)cc1 [Compound A-03, 5-(4-fluorophenyl)-4-[2-[4-(2-fluorobenzylidene)piperidin-1-yl]ethyl]pyrazole oxalate]	0.85	26.6	
Cc1ccc(-c2[nH]ncc2CCN2CCC(=Cc3ccc(F)cc3)CC2)cc1 [Compound A-04]	1.96	55.9	
CN1CCN(C2=Nc3cc(Cl)ccc3Nc3ccccc32)CC1 [clozapine]			effect on drug-resistant schizophrenia and negativism [1]: effective on drug-resistant schizophrenia and negativism; extrapyramidal diseases [1]: hardly causes extrapyramidal diseases; blood disorder (agranulocytosis) [2]: serious defect of causing blood disorder called agranulocytosis; death from agranulocytosis [2]: cases of death therefrom have been reported; affinity for dopamine D4 receptors relative to dopamine D2 receptors (dopamine D4 receptors): higher than that for dopamine D2 receptors
Fc1ccc(C=C2CCN(CCc3cn[nH]c3-c3ccc(F)cc3)CC2)cc1 [Compound A-01]	1.23	152	
Fc1ccc(-c2[nH]ncc2CCN2CCC(=Cc3cccc(F)c3)CC2)cc1 [Compound A-02]	1.12	32	

Now from value to molecule, other results behind:

IC50 (human D4.2 receptor) [nM]	IC50 (Dopamine D2 Receptor) [nM]	Compound	also measured
2.15	359	Fc1ccc(-c2ncncc2CCN2CCC(=Cc3ccccc3F)CC2)cc1 [Compound A-12, 4-(4-fluorophenyl)-5-[2-[4-(2-fluorobenzylidene)piperidin-1-yl]ethyl]pyrimidine dihydrochloride]	
2.85	107	O=C(c1ccc(F)cc1)C1CCN(CCc2sc(O)nc2-c2ccc(F)cc2)CC1 [Compound A-09]	
1.12	61.4	CSc1nc(-c2ccc(F)cc2)c(CCN2CCC(=Cc3cccc(F)c3)CC2)[nH]1 [Compound A-08]	
1.35	> 1000	Fc1ccc(-c2nc(S)ncc2CCN2CCC(=Cc3ccccc3F)CC2)cc1 [Compound A-13, 4-(4-fluorophenyl)-5-[2-[4-(2-fluorobenzylidene)piperidin-1-yl]ethyl]-2-mercaptopyrimidine]	
2.85	171	Cc1ccc(C=C2CCN(CCc3cn[nH]c3-c3ccc(F)cc3)CC2)cc1 [Compound A-06]	
1.96	73.9	Oc1nc(-c2ccc(F)cc2)c(CCN2CCC(=Cc3cccc(F)c3)CC2)s1 [Compound A-10, 2-hydroxy-4-(4-fluorophenyl)-5-[2-[4-(3-fluorobenzylidene)piperidin-1-yl]ethyl]thiazole]	
1.96	129	Nc1ncc(CCN2CCC(=Cc3ccccc3F)CC2)c(-c2ccc(F)cc2)n1 [Compound A-16]	
